From patent publication US20080114007A1 (priority 2006, published 2008)

The molecules below were run against CSF-1R (Homo sapiens, UniProt P07333) (assay: Peptide (non-phosphorylated) assay, fluorescence polarization competition immunoassay). Conditions: 0.7 nM CSF-1R, 308 μM SYEGNSYTFIDPTQ peptide, 1 mM ATP, 80 min; mean of at least three determinations; read-out: c-fms Peptide IC50.
Assay type: biochemical
Description: The kinase reaction was initiated by adding 1 μL of 10 mM ATP in assay buffer. […] Positive and negative control wells were included on each plate, where 4% DMSO in assay buffer was substituted for the compound; in addition, positive control wells received 1.2 μL of 50 mM EDTA before the start of the reaction.
The plates were covered and incubated at room temperature for 80 min. Reactions were stopped by addition of 1.2 μL of 50 mM EDTA. Each well then received 10 μL of a 1:1:3 mixture of 10× anti-phosphotyrosine antibody, 10×PTK green tracer, and FP dilution buffer, respectively (Cat. # P2837, Invitrogen, Carlsbad, Calif.). The plates were covered, incubated for 30 min at room temperature, and the fluorescence polarization was read on an Analyst plate reader (Molecular Devices).

Chain of CSF-1R (P07333 20-972): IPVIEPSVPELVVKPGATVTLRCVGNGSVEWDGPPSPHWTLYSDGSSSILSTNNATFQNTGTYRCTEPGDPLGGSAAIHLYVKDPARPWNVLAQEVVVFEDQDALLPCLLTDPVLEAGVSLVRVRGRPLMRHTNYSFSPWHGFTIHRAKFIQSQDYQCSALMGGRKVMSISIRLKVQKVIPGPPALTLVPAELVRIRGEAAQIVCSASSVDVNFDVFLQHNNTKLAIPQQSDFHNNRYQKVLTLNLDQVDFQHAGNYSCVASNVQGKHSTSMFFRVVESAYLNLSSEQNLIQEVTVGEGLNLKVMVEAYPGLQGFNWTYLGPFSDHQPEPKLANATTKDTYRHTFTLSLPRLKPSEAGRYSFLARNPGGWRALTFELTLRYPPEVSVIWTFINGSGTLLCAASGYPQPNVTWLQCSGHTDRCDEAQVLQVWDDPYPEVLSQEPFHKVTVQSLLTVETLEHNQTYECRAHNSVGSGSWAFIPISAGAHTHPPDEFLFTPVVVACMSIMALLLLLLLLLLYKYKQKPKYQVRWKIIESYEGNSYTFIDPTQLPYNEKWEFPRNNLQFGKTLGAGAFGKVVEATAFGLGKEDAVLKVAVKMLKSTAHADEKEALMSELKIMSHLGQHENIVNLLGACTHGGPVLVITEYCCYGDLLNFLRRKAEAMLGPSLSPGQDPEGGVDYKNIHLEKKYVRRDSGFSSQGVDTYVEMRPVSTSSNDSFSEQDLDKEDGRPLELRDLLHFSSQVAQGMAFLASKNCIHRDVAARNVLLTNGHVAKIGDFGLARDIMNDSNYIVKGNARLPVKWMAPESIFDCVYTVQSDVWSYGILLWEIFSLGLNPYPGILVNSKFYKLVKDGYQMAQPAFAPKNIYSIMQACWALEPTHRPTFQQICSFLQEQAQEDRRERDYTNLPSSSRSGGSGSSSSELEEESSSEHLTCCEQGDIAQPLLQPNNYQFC

Question: With `CONC(=O)c1cn(-c2cccc(C(F)(F)F)c2)c2nc(Nc3ccc(C4CCN(C)CC4)cc3)ncc2c1=O` as the molecule, how does the IC50 read?
Answer: The IC50 was 0.8 nM.

Question: Which IC50 does the source give for `CONC(=O)c1cn(-c2ccc3c(c2)CCC3)c2nc(Nc3ccc(CCN4CCCC(F)(F)C4)cc3)ncc2c1=O` here?
Answer: Its IC50 is 1.7 nM.

Question: Which IC50 does the source give for `CC(C)NC(=O)c1cn(-c2ccc3c(c2)CCC3)c2nc(Nc3cccc(N4CCNCC4)c3)ncc2c1=O` [Cpd 1, 8-indan-5-yl-5-oxo-2-(3-piperazin-1-yl-phenylamino)-5,8-dihydro-pyrido[2,3-d]pyrimidine-6-carboxylic acid isopropylamide] here?
Answer: Its IC50 is 4.5 nM.

Question: `CONC(=O)c1cn(-c2ccc3c(c2)CCC3)c2nc(Nc3cccc(N4CCNCC4)c3)ncc2c1=O` [Cpd 2, 8-indan-5-yl-5-oxo-2-(3-piperazin-1-yl-phenylamino)-5,8-dihydro-pyrido[2,3-d]pyrimidine-6-carboxylic acid methoxy-amide] was tested. Which IC50 did it give?
Answer: Its IC50 is 0.56 nM.

Question: Which IC50 does the source give for `CN1CCN(CCc2ccc(Nc3ncc4c(=O)c(C(N)=O)cn(-c5ccc(F)c(Cl)c5)c4n3)cc2)CC1` [Cpd 3, 8-(3-chloro-4-fluoro-phenyl)-2-{4-[2-(4-methyl-piperazin-1-yl)-ethyl]-phenylamino}-5-oxo-5,8-dihydro-pyrido[2,3-d]pyrimidine-6-carboxylic acid amide] here?
Answer: Its IC50 is 28 nM.

Question: Which IC50 does the source give for `CONC(=O)c1cn(-c2ccc(F)c(Cl)c2)c2nc(Nc3ccc(CCN4CCN(C)CC4)cc3)ncc2c1=O` [Cpd 4, 8-(3-chloro-4-fluoro-phenyl)-2-{4-[2-(4-methyl-piperazin-1-yl)-ethyl]-phenylamino}-5-oxo-5,8-dihydro-pyrido[2,3-d]pyrimidine-6-carboxylic acid methoxy amide] here?
Answer: Its IC50 is 2.2 nM.

Question: How did the IC50 turn out when `NC(=O)c1cn(-c2ccc3c(c2)CCC3)c2nc(Nc3ccc(CCN4CCCC4)cc3)ncc2c1=O` [Cpd 5, 8-indan-5-yl-5-oxo-2-[4-(2-pyrrolidin-1-yl-ethyl)-phenylamino]-5,8-dihydro-pyrido[2,3-d]pyrimidine-6-carboxylic acid amide] was run?
Answer: Its IC50 is 1.5 nM.

Question: `NC(=O)c1cn(-c2ccc3c(c2)CCC3)c2nc(Nc3ccc(N4CCC[C@H]4CO)cc3)ncc2c1=O` [Cpd 6, (S)-2-[4-(2-hydroxymethyl-pyrrolidin-1-yl)-phenylamino]-8-indan-5-yl-5-oxo-5,8-dihydro-pyrido[2,3-d]pyrimidine-6-carboxylic acid amide] was tested. Which IC50 did it give?
Answer: The IC50 was 3.1 nM.

Question: `CONC(=O)c1cn(-c2ccc3c(c2)CCC3)c2nc(Nc3ccc(N4CCC[C@H]4CO)cc3)ncc2c1=O` [Cpd 7, (S)-2-[4-(2-hydroxymethyl-pyrrolidin-1-yl)-phenylamino]-8-indan-5-yl-5-oxo-5,8-dihydro-pyrido[2,3-d]pyrimidine-6-carboxylic acid methoxy-amide] was tested. Which IC50 did it give?
Answer: Its IC50 is 1.7 nM.

Question: `NC(=O)c1cn(-c2ccc3c(c2)CCC3)c2nc(Nc3ccc(CN4CCCC4=O)cc3)ncc2c1=O` [Cpd 8, 8-indan-5-yl-5-oxo-2-[4-(2-oxo-pyrrolidin-1-ylmethyl)-phenylamino]-5,8-dihydro-pyrido[2,3-d]pyrimidine-6-carboxylic acid amide] was tested. Which IC50 did it give?
Answer: The IC50 was 1.6 nM.

Question: For `CONC(=O)c1cn(-c2ccc3c(c2)CCC3)c2nc(Nc3ccc(CN4CCCC4=O)cc3)ncc2c1=O` [Cpd 9, 8-indan-5-yl-5-oxo-2-[4-(2-oxo-pyrrolidin-1-ylmethyl)-phenylamino]-5,8-dihydro-pyrido[2,3-d]pyrimidine-6-carboxylic acid methoxy-amide], which IC50 is on record?
Answer: The IC50 was 0.24 nM.

Question: Which IC50 does the source give for `CONC(=O)c1cn(C2CCCCC2)c2nc(Nc3ccc(N4CCCC4)cc3)ncc2c1=O` [Cpd 10, 8-cyclohexyl-5-oxo-2-(4-pyrrolidin-1-yl-phenylamino)-5,8-dihydro-pyrido[2,3-d]pyrimidine-6-carboxylic acid methoxy-amide] here?
Answer: Its IC50 is 2.1 nM.

Question: For `CONC(=O)c1cn(C2CCCCC2)c2nc(Nc3ccc(C(=O)N4CCCC4)cc3)ncc2c1=O` [Cpd 11, 8-cyclohexyl-5-oxo-2-[4-(pyrrolidine-1-carbonyl)-phenylamino]-5,8-dihydro-pyrido[2,3-d]pyrimidine-6-carboxylic acid methoxy-amide], which IC50 is on record?
Answer: Its IC50 is greater than 300 nM.

Question: With `CONC(=O)c1cn(C2CCCCC2)c2nc(Nc3ccc(CN4CCCC4=O)cc3)ncc2c1=O` [Cpd 12, 8-cyclohexyl-5-oxo-2-[4-(2-oxo-pyrrolidin-1-ylmethyl)-phenylamino]-5,8-dihydro-pyrido[2,3-d]pyrimidine-6-carboxylic acid methoxy-amide] as the molecule, how does the IC50 read?
Answer: The IC50 was 1.3 nM.

Question: `CONC(=O)c1cn(C2CCCCC2)c2nc(Nc3ccc(CCN4CCCC4=O)cc3)ncc2c1=O` [Cpd 13, 8-cyclohexyl-5-oxo-2-{4-[2-(2-oxo-pyrrolidin-1-yl)-ethyl]-phenylamino}-5,8-dihydro-pyrido[2,3-d]pyrimidine-6-carboxylic acid methoxy-amide] was tested. Which IC50 did it give?
Answer: Its IC50 is 1.6 nM.

Question: With `CCONC(=O)c1cn(C2CCCCC2)c2nc(Nc3ccc(CCN4CCCC4)cc3)ncc2c1=O` [Cpd 15, 8-cyclohexyl-5-oxo-2-[4-(2-pyrrolidin-1-yl-ethyl)-phenylamino]-5,8-dihydro-pyrido[2,3-d]pyrimidine-6-carboxylic acid ethoxy-amide] as the molecule, how does the IC50 read?
Answer: Its IC50 is 0.19 nM.

Question: For `CC(C)ONC(=O)c1cn(C2CCCCC2)c2nc(Nc3ccc(CCN4CCCC4)cc3)ncc2c1=O` [Cpd 16, 8-cyclohexyl-5-oxo-2-[4-(2-pyrrolidin-1-yl-ethyl)-phenylamino]-5,8-dihydro-pyrido[2,3-d]pyrimidine-6-carboxylic acid isopropoxy-amide], which IC50 is on record?
Answer: Its IC50 is 0.64 nM.

Question: How did the IC50 turn out when `O=C(NO)c1cn(C2CCCCC2)c2nc(Nc3ccc(CCN4CCCC4)cc3)ncc2c1=O` [Cpd 17, 8-cyclohexyl-5-oxo-2-[4-(2-pyrrolidin-1-yl-ethyl)-phenylamino]-5,8-dihydro-pyrido[2,3-d]pyrimidine-6-carboxylic acid hydroxyamide] was run?
Answer: The IC50 was 0.94 nM.

Question: `CONC(=O)c1cn(C2CCCCC2)c2nc(Nc3ccc(CCN4CCN(C)CC4)cc3)ncc2c1=O` [Cpd 18, 8-cyclohexyl-2-{4-[2-(4-methyl-piperazin-1-yl)-ethyl]-phenylamino}-5-oxo-5,8-dihydro-pyrido[2,3-d]pyrimidine-6-carboxylic acid methoxy-amide] was tested. Which IC50 did it give?
Answer: The IC50 was 0.3 nM.

Question: For `CCONC(=O)c1cn(C2CCCCC2)c2nc(Nc3ccc(CCN4CCN(C)CC4)cc3)ncc2c1=O` [Cpd 19, 8-cyclohexyl-2-{4-[2-(4-methyl-piperazin-1-yl)-ethyl]-phenylamino}-5-oxo-5,8-dihydro-pyrido[2,3-d]pyrimidine-6-carboxylic acid ethoxy-amide], which IC50 is on record?
Answer: Its IC50 is 1 nM.

Question: Which IC50 does the source give for `CONC(=O)c1cn(C2CCCCC2)c2nc(Nc3ccc(CCN4CCOCC4)cc3)ncc2c1=O` [Cpd 20, 8-cyclohexyl-2-[4-(2-morpholin-4-yl-ethyl)-phenylamino]-5-oxo-5,8-dihydro-pyrido[2,3-d]pyrimidine-6-carboxylic acid methoxy-amide] here?
Answer: The IC50 was 3 nM.

Question: Which IC50 does the source give for `CCONC(=O)c1cn(C2CCCCC2)c2nc(Nc3ccc(CCN4CCOCC4)cc3)ncc2c1=O` [Cpd 21, 8-cyclohexyl-2-[4-(2-morpholin-4-yl-ethyl)-phenylamino]-5-oxo-5,8-dihydro-pyrido[2,3-d]pyrimidine-6-carboxylic acid ethoxy-amide] here?
Answer: The IC50 was 1 nM.

Question: Which IC50 does the source give for `CONC(=O)c1cn(C2CCCCC2)c2nc(Nc3ccc(C[C@H]4COC(=O)N4)cc3)ncc2c1=O` [Cpd 22, (S)-8-cyclohexyl-5-oxo-2-[4-(2-oxo-oxazolidin-4-ylmethyl)-phenylamino]-5,8-dihydro-pyrido[2,3-d]pyrimidine-6-carboxylic acid methoxy-amide] here?
Answer: The IC50 was 1.5 nM.

Question: For `CCONC(=O)c1cn(C2CCCCC2)c2nc(Nc3ccc(C[C@H]4COC(=O)N4)cc3)ncc2c1=O` [Cpd 23, (S)-8-cyclohexyl-5-oxo-2-[4-(2-oxo-oxazolidin-4-ylmethyl)-phenylamino]-5,8-dihydro-pyrido[2,3-d]pyrimidine-6-carboxylic acid ethoxy-amide], which IC50 is on record?
Answer: The IC50 was 3 nM.

Question: Which IC50 does the source give for `CONC(=O)c1cn(C2CCCCC2)c2nc(Nc3ccc(N4CC(C)NC(C)C4)cc3)ncc2c1=O` (stereo not drawn) [Cpd 24, 8-cyclohexyl-2-[4-(3,5-dimethyl-piperazin-1-yl)-phenylamino]-5-oxo-5,8-dihydro-pyrido[2,3-d]pyrimidine-6-carboxylic acid methoxy-amide] here?
Answer: Its IC50 is 1.8 nM.

Question: With `CCONC(=O)c1cn(C2CCCCC2)c2nc(Nc3ccc(N4CC(C)NC(C)C4)cc3)ncc2c1=O` (stereo not drawn) [Cpd 25, 8-cyclohexyl-2-[4-(3,5-dimethyl-piperazin-1-yl)-phenylamino]-5-oxo-5,8-dihydro-pyrido[2,3-d]pyrimidine-6-carboxylic acid ethoxy-amide] as the molecule, how does the IC50 read?
Answer: Its IC50 is 2.1 nM.

Question: With `CONC(=O)c1cn(C2CCCCC2)c2nc(Nc3ccc(C4CCNCC4)cc3)ncc2c1=O` [Cpd 26, 8-cyclohexyl-5-oxo-2-(4-piperidin-4-yl-phenylamino)-5,8-dihydro-pyrido[2,3-d]pyrimidine-6-carboxylic acid methoxy-amide] as the molecule, how does the IC50 read?
Answer: Its IC50 is 1.4 nM.

Question: For `CCONC(=O)c1cn(C2CCCCC2)c2nc(Nc3ccc(C4CCNCC4)cc3)ncc2c1=O` [Cpd 27, 8-cyclohexyl-5-oxo-2-(4-piperidin-4-yl-phenylamino)-5,8-dihydro-pyrido[2,3-d]pyrimidine-6-carboxylic acid ethoxy-amide], which IC50 is on record?
Answer: Its IC50 is 1.6 nM.

Question: For `CONC(=O)c1cn(C2CCCCC2)c2nc(Nc3ccc(C4CCN(C(C)=O)CC4)cc3)ncc2c1=O` [Cpd 28, 2-[4-(1-acetyl-piperidin-4-yl)-phenylamino]-8-cyclohexyl-5-oxo-5,8-dihydro-pyrido[2,3-d]pyrimidine-6-carboxylic acid methoxy-amide], which IC50 is on record?
Answer: The IC50 was 2.2 nM.

Question: With `CCONC(=O)c1cn(C2CCCCC2)c2nc(Nc3ccc(C4CCN(C(C)=O)CC4)cc3)ncc2c1=O` [Cpd 29, 2-[4-(1-acetyl-piperidin-4-yl)-phenylamino]-8-cyclohexyl-5-oxo-5,8-dihydro-pyrido[2,3-d]pyrimidine-6-carboxylic acid ethoxy-amide] as the molecule, how does the IC50 read?
Answer: The IC50 was 1 nM.
